Data published in patent US20080255169A1 (priority 2004, published 2008).
Where two headings read alike, the source gives them in different places.

Assays:
PC-3 cells = test: Cell invasion assay: invasion of PC-3 cells through Matrigel; format: cell-based; conditions: Homo sapiens, 72 hours
Excerpt: The overexpression regulates cell adhesion and migration to and invasion through the extracellular matrix. By blocking the interaction between extracellular matrix components like collagen and α2β1 it is possible to block cancer cell migration and invasion in vitro. Prostate cancer cells (PC-3) expressing α2β1 endogenously were used to test the in vitro anticancer potential of the inhibitors of the present invention.
Invasion of PC-3 cells (CRL-1435, ATCC) through Matrigel was studied using BD Biocoat invasion inserts (BD Biosciences). Inserts were stored at −20° C. Before the experiments inserts were allowed to adjust to the room temperature. 500 μl of serum free media (Ham's F12K medium, 2 mM L-glutamine, 1.5 g/l sodium bicarbonate) was added into the inserts and allowed to rehydrate at 37° C. in cell incubator for two hours. The remaining media was aspirated. PC-3 cells were detached, pelleted and suspended into serum free media (50 000 cells/500 μl). 300 μl of cell suspension was added into the insert in the absence (control) or presence of the inhibitor according to the pre-sent invention. Inserts were placed on the 24-well plates; each well containing 700 μl of cell culture media with 3% of fetal bovine serum as chemo-attractant. Cells were allowed to invade for 72 hours at 37° C. in cell incubator. Inserts were washed with 700 μl PBS, and fixed with 4% paraformaldehyde for 10 minutes. Paraformaldehyde was aspirated and cells were washed with 700 μl of PBS and inserts were stained by incubation with hematoxylin for 1 minute. The stain was removed by washing the inserts with 700 μl of PBS. Inserts were allowed to dry. Fixed invaded cells were calculated under the microscope. Invasion % was calculated as a comparison to the control.
Cell invasion assay is used as an in vitro cancer metastatis model. […] Some structures inhibit invasion even with submicromolar concentrations. […] In FIG. 2, the dose response of compound 161 in invasion assay is shown. Compound 161 gave the best EC50 value (0.3 μM) in invasion assay. Invasion assay was done with human prostata cancer cell line, PC-3.

α2β1 integrin [1] = target: α2β1 integrin (Homo sapiens, UniProt P05556+P17301); test: Cell adhesion assay; format: cell-based; conditions: for EC50: read-out: EC50 in cell adhesion assay; for Emax: concentration not given, read-out: Emax in cell adhesion assay
α2β1 integrin (Homo sapiens, UniProt P05556+P17301), sequence (P17301 30-1181): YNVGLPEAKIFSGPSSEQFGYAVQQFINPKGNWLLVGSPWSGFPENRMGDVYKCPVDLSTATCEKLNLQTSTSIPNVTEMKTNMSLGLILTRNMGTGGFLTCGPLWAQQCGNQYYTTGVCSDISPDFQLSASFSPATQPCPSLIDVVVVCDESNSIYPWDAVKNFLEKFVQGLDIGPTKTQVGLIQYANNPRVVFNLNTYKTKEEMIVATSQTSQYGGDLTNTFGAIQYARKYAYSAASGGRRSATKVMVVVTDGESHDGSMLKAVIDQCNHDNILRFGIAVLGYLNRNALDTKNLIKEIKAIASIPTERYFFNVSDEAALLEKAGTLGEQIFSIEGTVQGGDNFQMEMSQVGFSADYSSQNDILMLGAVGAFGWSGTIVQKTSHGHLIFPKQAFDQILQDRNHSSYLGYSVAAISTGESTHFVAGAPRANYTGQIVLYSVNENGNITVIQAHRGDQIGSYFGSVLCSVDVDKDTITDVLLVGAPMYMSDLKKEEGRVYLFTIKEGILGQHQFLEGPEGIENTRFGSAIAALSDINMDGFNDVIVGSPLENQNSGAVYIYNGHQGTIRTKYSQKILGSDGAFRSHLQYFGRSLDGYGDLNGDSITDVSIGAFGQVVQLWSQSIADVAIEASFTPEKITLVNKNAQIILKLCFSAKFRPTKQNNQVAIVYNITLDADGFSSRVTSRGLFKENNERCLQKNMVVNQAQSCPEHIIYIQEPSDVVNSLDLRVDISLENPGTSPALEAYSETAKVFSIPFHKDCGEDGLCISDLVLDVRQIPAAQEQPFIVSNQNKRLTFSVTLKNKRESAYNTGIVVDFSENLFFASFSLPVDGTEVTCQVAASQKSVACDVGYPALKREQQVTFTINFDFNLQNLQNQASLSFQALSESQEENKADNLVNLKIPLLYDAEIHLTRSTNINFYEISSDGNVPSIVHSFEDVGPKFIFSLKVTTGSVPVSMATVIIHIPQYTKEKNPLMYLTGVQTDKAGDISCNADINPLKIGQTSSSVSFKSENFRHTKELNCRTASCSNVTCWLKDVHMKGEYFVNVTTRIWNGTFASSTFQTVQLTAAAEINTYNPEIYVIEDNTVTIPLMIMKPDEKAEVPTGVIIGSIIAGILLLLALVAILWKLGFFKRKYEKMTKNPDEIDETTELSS
α2β1 integrin (Homo sapiens, UniProt P05556+P17301), sequence (P05556 21-798 partner): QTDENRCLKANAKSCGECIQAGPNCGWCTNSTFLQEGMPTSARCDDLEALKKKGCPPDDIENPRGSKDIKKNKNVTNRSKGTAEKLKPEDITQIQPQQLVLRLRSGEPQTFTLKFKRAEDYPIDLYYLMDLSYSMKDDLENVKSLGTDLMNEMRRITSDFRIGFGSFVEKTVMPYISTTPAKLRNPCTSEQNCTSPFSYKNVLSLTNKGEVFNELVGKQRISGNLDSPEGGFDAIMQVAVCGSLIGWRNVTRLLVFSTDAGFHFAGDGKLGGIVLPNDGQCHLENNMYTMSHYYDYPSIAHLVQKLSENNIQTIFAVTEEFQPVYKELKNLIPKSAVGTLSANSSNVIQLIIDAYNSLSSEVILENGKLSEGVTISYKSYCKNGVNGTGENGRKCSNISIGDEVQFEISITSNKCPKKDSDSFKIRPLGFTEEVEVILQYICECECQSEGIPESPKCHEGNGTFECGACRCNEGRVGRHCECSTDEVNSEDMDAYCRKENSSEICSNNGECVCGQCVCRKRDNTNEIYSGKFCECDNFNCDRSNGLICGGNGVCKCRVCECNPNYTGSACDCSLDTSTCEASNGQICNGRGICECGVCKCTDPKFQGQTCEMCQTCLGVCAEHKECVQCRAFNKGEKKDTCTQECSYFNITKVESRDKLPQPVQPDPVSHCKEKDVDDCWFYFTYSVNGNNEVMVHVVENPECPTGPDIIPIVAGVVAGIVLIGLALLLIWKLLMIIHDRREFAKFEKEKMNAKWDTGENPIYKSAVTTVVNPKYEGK

α2β1 integrin [2] = target: α2β1 integrin (Homo sapiens, UniProt P17301); test: Cell adhesion assay; format: cell-based
α2β1 integrin (Homo sapiens, UniProt P17301), sequence (P17301 30-1181): as the sequence (P17301 30-1181) above
α2β1 integrin (Homo sapiens, UniProt P17301), sequence (P05556 21-798 partner): as the sequence (P05556 21-798 partner) above

[3] = read-out: EC50 in invasion assay

## COc1ccc(-c2cnn(-c3ccc(NS(=O)(=O)c4ccc(Cl)cc4)cc3)c2)cc1 [Compound 176]
PC-3 cells; [3]
  EC50: ≤ 1 µM
α2β1 integrin [1]
  Emax at 50 µM: 59%
  EC50: 17 µM

## O=S(=O)(Nc1ccc2cc[nH]c2c1)c1ccc(Cl)cc1Cl [Compound 161, 2,4-dichloro-N-(1H-indol-6-yl)-benzenesulfonamide]
PC-3 cells; dose response FIG. 2, read-out: EC50 value in invasion assay
  EC50: 0.3 µM
PC-3 cells; [3]
  EC50: ≤ 1 µM
α2β1 integrin [1]
  Emax: 82%
  EC50: 34 µM

## Cc1cc2cc(NS(=O)(=O)c3ccc(Cl)cc3Cl)ccc2[nH]1 [Compound 131, 2,4-dichloro-N-(2-methyl-1H-indol-5-yl)-benzenesulfonamide]
PC-3 cells; [3]
  EC50: ≤ 1 µM
α2β1 integrin [1]
  Emax: 58%
  EC50: 25 µM

## CC(=O)c1ccc(-c2cccc(S(=O)(=O)Nc3ccc(N(C)C)cc3)c2)s1 [Compound 239, 3-(5-acetylthien-2-yl)-N-[4-(dimethylamino)phenyl]benzenesulfonamide]
PC-3 cells; [3]
  EC50: ≤ 1 µM
α2β1 integrin [1]
  Emax at 50 µM: 64%
  EC50: 24 µM

## CN(C)c1ccc(NS(=O)(=O)c2cccc(-c3ccc(F)cc3)c2)cc1 [Compound 119, N-[4-(dimethylamino)phenyl]-4′-fluoro-1,1′-biphenyl-3-sulphonamide]
other
  melting point: 158 to 160 °C
α2β1 integrin [1]
  Emax: 70%
  EC50: 3 µM

## Cc1[nH]c2ccc(NS(=O)(=O)c3ccc(Cl)cc3Cl)cc2c1C [Compound 210]
α2β1 integrin [2]
  EC50 in cell adhesion assay: dd could not be detected
α2β1 integrin [1]
  Emax at 50 µM: 80%

## Cc1cc(C)nc(Nc2ccc(NS(=O)(=O)c3cccc(Br)c3)cc2)n1 [Compound 183]
PC-3 cells; [3]
  EC50: ≤ 1 µM
α2β1 integrin [1]
  Emax: 81%
  EC50: 28 µM

## CN(C)c1ccc(N(C)S(=O)(=O)c2cccc(Br)c2)cc1 [Compound 281]
PC-3 cells; [3]
  EC50: ≤ 1 µM
α2β1 integrin [1]
  Emax: 78%
  EC50: 47 µM

## Cc1cc2cc(N(C)S(=O)(=O)c3ccc(Cl)cc3Cl)ccc2n1C [Compound 242, 2,4-dichloro-N-(1,2-dimethyl-1H-indol-5-yl)-N-methyl-benzenesulfonamide]
PC-3 cells; [3]
  EC50: ≤ 1 µM
α2β1 integrin [1]
  Emax: 70%
  EC50: 6 µM

## COc1ccc(-c2cccc(S(=O)(=O)Nc3ccc(N(C)C)cc3)c2)cc1OC [Compound 102, 3′,4′-dimethoxy-biphenyl-3-sulphonic acid (4-dimethylamino-phenyl)-amide]
other
  melting point: 43 °C
α2β1 integrin [2]; concentration not given
  Emax in cell adhesion assay: 65%
α2β1 integrin [1]
  EC50: 13 µM

## Cc1cc(C)n(-c2ccc(NS(=O)(=O)c3cccc(-c4ccc(F)cc4)c3)cc2)n1 [Compound 298]
PC-3 cells; [3]
  EC50: ≤ 1 µM
α2β1 integrin [1]
  Emax: 79%
  EC50: 33 µM

## Cn1ccc2cc(NS(=O)(=O)c3cccc(-c4ccc(F)cc4)c3)ccc21 [Compound 285, 4′-fluoro-biphenyl-3-sulfonic acid (1-methyl-1H-indol-5-yl)-amide]
PC-3 cells; [3]
  EC50: ≤ 1 µM
α2β1 integrin [1]
  Emax at 50 µM: 60%
  EC50: 20 µM

## Cc1cc(F)ccc1-c1cccc(S(=O)(=O)Nc2ccc(N(C)C)cc2)c1 [Compound 222, N-[4-(dimethylamino)phenyl]-4′-fluoro-2′-methyl-1,1′-biphenyl-3-sulfonamide]
PC-3 cells; [3]
  EC50: ≤ 1 µM
α2β1 integrin [1]
  Emax: 66%
  EC50: 15 µM
